Source: patent US20140079836A1, “METHODS AND COMPOSITIONS FOR ALTERING HEALTH, WELLBEING, AND LIFESPAN” (LifeSpan Extension, LLC, priority 2008, published 2014)
Where “and” joins values, the source holds several entries; their conditions need not be identical. Identical values can stand only once.

Test system: entire human genome (gene expression profile)
Assay: Agilent whole human genome array, skin fibroblasts AG07999, antioxidant with or without UV
Assay type: cell-based
Method: Cell cultures: A human skin fibroblast cell culture was obtained through the Coriell Cell Repository from the National Institute on Aging Cell Repository. […] Culture media: Cells were grown in Minimal Essential Medium supplemented with 10% fetal bovine serum, 2 mM L-glutamine, 2 mM Glutamax I. […] All cultures were incubated at 37° C. with 5% CO2 in a humidified chamber. […] On Day 5 after 24 hours of exposure to test conditions, the cells were isolated and the RNA isolated using the RT^2q PCR-grade RNA isolation kit (Superarray Bioscience Corporation). […] Analysis of Agilent Whole Human Genome Arrays: RNA taken from both samples was sent to Cogenics, Inc. Morrisville, N.C. Cogenics, Inc. is a leading, state-of-the-art, microarray service provider that facilitates and accelerates transcriptome profiling and gene discovery processes for industrial and academic researchers. Cogenics' procedure for processing samples is as follows: RNA samples are received and analyzed by Cogenics, Inc. using rigorous standardized procedures that are designed to ensure quality and chain of custody. Each sample undergoes a thorough quality analysis using an Agilent Bioanalyzer microfluidics device, and is precisely quantified using a Nanodrop-1000 spectro-photometer. When the Agilent Oligonucleotide Microarray Platform is utilized, samples are fluorescently labeled using the Agilent Low-Input Linear Amplification Kit. Upon completion of this process, the labeled cRNA products are assessed using the same processes described above. These labeled samples are then fragmented and hybridized to oligonucleotide microarrays. The microarrays are washed and then scanned using an Agilent DNA Microarray Scanner with Sure Scan technology. Data is extracted from the images produced by the scanner using Agilent's Feature Extraction software. At this point, the scanned image is visually inspected for defects, and the extracted data is statistically analyzed to ensure quality of the assay. Extracted data and images can be loaded into Rosetta Resolver Gene Expression Data Analysis System for in-depth analysis, both from a quality standpoint, as well as to develop biological understanding. […] A table was generated and provided as a tab-delimited text file. This file will contain the log ratio, fold-change, log ratio p-value, etc. for every transcript measured by the microarray. Using Rosetta Resolver, a single ratio comparison was compiled based on the results of the two fluorophore reversal hybridization performed in the context of this project. The ratios were calculated such that the Tx sample was in the numerator and the UnTx sample was in the denominator. A table was generated, saved as tab-delimited text files, and is provided on the DVD that accompanied this report in the “Objective—1” subdirectory or the “Data_Analysis” directory. These files contain the log ratio, fold-change, log ratio p-value, etc. for every transcript present on the microarray. […] A table for will be generated and provided as a tab-delimited text file. The file will contain the log ratio, fold-change, log ratio p-value, etc. for only the differentially expressed transcripts within the context of the comparison. […] These criteria were applied to the comparison made in Objective 1. A table was generated, saved as tab-delimited text files, and is provided on the DVD that accompanied this report in the “Objective—1” subdirectory or the “Data_Analysis” directory. […] Cell cultures: A human skin fibroblast cell culture (or cultures) will be obtained through the Coriell Cell Repository from the National Institute on Aging Cell Repository. […] Culture media: Cells will be grown in Minimal Essential Medium supplemented with 10% fetal bovine serum, 2 mM L-glutamine, 2 mM Glutamax I.

COC1=C(OC)C(=O)C(CCCCCCCCCCO)=C(C)C1=O [Idebenone, 6-(10-hydroxydecyl)-2,3-dimethoxy-5-methyl-1,4-benzoquin-one]
−1.1: APEX2 Expression (Alone) | ATXN3 Expression (Alone) | CCNH Expression (Alone) | CRY2 Expression (Alone) | E2F2 Expression (Alone) | ERCC4 Expression (Alone) | ERCC8 Expression (Alone) | FANCF Expression (Alone) | GADD45A Expression (Alone) | GAPDH Expression (Alone) | GTSE1 Expression (Alone) | HK1 Expression (Alone) | LTA Expression (Alone) | MMP2 Expression (Alone) | MMP14 Expression (Alone) | NF1 Expression (Alone) | PITRM1 Expression (Alone) | PKM2 Expression (Alone) | PLAT Expression (Alone) | PLAUR Expression (Alone) | RRAS Expression (Alone) | S100A11 Expression (Alone)
1.5: DUT Expression (Alone) | NEIL1 Expression (Alone)
2.7: S100A7 Expression (Alone)
−1.6: IFI44 expression (Alone) | MMP7 Expression (Alone) | NR1D1 Expression (Alone) | PLAU Expression (Alone)
−1.5: CDA Expression (Alone) | CHEK1 Expression (Alone) | E2F1 Expression (Alone) | E2F3 Expression (Alone) | NFKB1 expression (Alone) | PRDX6 Expression (Alone) | RB1 Expression (Alone)
1.0: ABL1 Expression (Alone) | AK3 Expression (Alone) | ALDOA Expression (Alone) | APOE Expression (Alone) | ATIC Expression (Alone) | ATRX Expression (Alone) | BCL2 Expression (Alone) | BLM Expression (Alone) | BRIP1 Expression (Alone) | BTG2 Expression (Alone) | CASP2 Expression (Alone) | CDK7 Expression (Alone) | CDKN2A Expression (Alone) | CHUK Expression (Alone) | CIB1 Expression (Alone) | CLK1 Expression (Alone) | CRY1 Expression (Alone) | CTPS Expression (Alone) | DCLRE1C Expression (Alone) | DDB2 Expression (Alone) | DDC Expression (Alone) | DHFR Expression (Alone) | DKC1 Expression (Alone) | ERCC2 Expression (Alone) | ERCC5 Expression (Alone) | ERH Expression (Alone) | FANCA Expression (Alone) | GADD45G Expression (Alone) | GDA Expression (Alone) | GH1 Expression (Alone) | GMPR Expression (Alone) | GTF2H3 Expression (Alone) | HLA-DRA Expression (Alone) | HSPA1L Expression (Alone) | HUS1 Expression (Alone) | IGF1 Expression (Alone) | IGF2 Expression (Alone) | JUN Expression (Alone) | LIG1 Expression (Alone) | LIG3 Expression (Alone) | LIG4 Expression (Alone) | MAP2K6 Expression (Alone) | MAPK14 Expression (Alone) | MBD4 Expression (Alone) | MDH1 Expression (Alone) | MLH1 Expression (Alone) | MLH3 Expression (Alone) | MMP10 Expression (Alone) | MMP13 Expression (Alone) | MNAT1 Expression (Alone) | MPG Expression (Alone) | MSH2 Expression (Alone) | MSH4 Expression (Alone) | MSH6 Expression (Alone) | NCK1 Expression (Alone) | NFKBIA Expression (Alone) | NGFR Expression (Alone) | NOS2A Expression (Alone) | OAS3 Expression (Alone) | PDZK1IP1 Expression (Alone) | POLA2 Expression (Alone) | PSMC6 Expression (Alone) | PSMD12 Expression (Alone) | RPL3 Expression (Alone) | RPS10 Expression (Alone) | S100A8 Expression (Alone) | SPRR1B Expression (Alone)
−1.7: S100A10 Expression (Alone)
−1.4: GTF2H4 Expression (Alone) | MAPKAPK2 Expression (Alone) | MMP1 Expression (Alone) | SERPINE1 Expression (Alone)
−1.2: BPNT1 Expression (Alone) | CIDEB Expression (Alone) | GTF2H2 Expression (Alone) | INPPL1 Expression (Alone) | KRAS Expression (Alone) | NBN Expression (Alone) | NP Expression (Alone) | RORA Expression (Alone) | SIRT1 Expression (Alone) | SPARC Expression (Alone)
1.1 and 1.0: ACTB Expression (Alone) | SOD2 Expression (Alone)
−1.0: ACE Expression (Alone) | ANKRD17 Expression (Alone) | B2M Expression (Alone) | BRCA1 Expression (Alone) | CASP9 Expression (Alone) | CREBBP Expression (Alone) | ERCC3 Expression (Alone) | FANCC Expression (Alone) | FEN1 Expression (Alone) | IL1A Expression (Alone) | IL6 Expression (Alone) | MAPK9 Expression (Alone) | MAPK12 Expression (Alone) | MAX Expression (Alone) | MMP15 Expression (Alone) | MSRA Expression (Alone) | MUTYH Expression (Alone) | MYCBP Expression (Alone) | NEIL3 Expression (Alone) | NUDT2 Expression (Alone) | PAK1 Expression (Alone) | PAPSS1 Expression (Alone) | PAPSS2 Expression (Alone) | PCNA Expression (Alone) | PPARG Expression (Alone) | PSMD1 Expression (Alone) | RAF1 Expression (Alone) | RET Expression (Alone) | RPL13A Expression (Alone) | RRM1 Expression (Alone) | SLK Expression (Alone) | SOD1 Expression (Alone) | SRI Expression (Alone) | STAT5A Expression (Alone)
−2.7: SPP1 Expression (Alone)
1.1: ATF2 Expression (Alone) | BRCA2 Expression (Alone) | CETN2 Expression (Alone) | CHEK2 Expression (Alone) | DDIT3 Expression (Alone) | DMC1 Expression (Alone) | DPYS Expression (Alone) | ENTPD4 Expression (Alone) | EXO1 Expression (Alone) | FANCG Expression (Alone) | GTF2H1 Expression (Alone) | HSP90AB1 Expression (Alone) | HTRA1 Expression (Alone) | IGHMBP2 Expression (Alone) | IHPK3 Expression (Alone) | IL10 Expression (Alone) | MMP11 Expression (Alone) | MSH3 Expression (Alone) | MTAP Expression (Alone) | N4BP2 Expression (Alone) | NRG1 Expression (Alone) | NTHL1 Expression (Alone) | PPIE Expression (Alone) | PSMA2 Expression (Alone) | PSMA3 Expression (Alone) | PSMD11 Expression (Alone)
1.7: MMP12 Expression (Alone)
2.4: CSF2 Expression (Alone)
1.2 and 1.0: SHC1 Expression (Alone)
1.2 and 1.1: HPRT1 Expression (Alone)
2.3: MMP3 Expression (Alone)
n.s.: fold change of gene expression (sequence name in c0), Idebenone + UVB
1.9: DDB1 Expression (Alone)
−2.0: SDS Expression (Alone)
1.4: BARD1 Expression (Alone) | CYP19A1 Expression (Alone) | ERCC6 Expression (Alone) | HSPA1A Expression (Alone) | MCM2 Expression (Alone) | MKI67 Expression (Alone) | MYBL2 Expression (Alone) | SNCG Expression (Alone)
−1.3: GML Expression (Alone) | MAPK8 Expression (Alone) | MGMT Expression (Alone) | MT2A Expression (Alone) | OGG1 Expression (Alone)
1.3 and 1.2: PARP1 Expression (Alone)
−2.9: SERPINB2 Expression (Alone)
1.6: MVK Expression (Alone)
1.3: BAX Expression (Alone) | CIDEA Expression (Alone) | NUDT1 Expression (Alone) | OAS1 Expression (Alone) | PARP2 Expression (Alone) | PLK1 Expression (Alone)
1.2: APEX1 Expression (Alone) | ATM Expression (Alone) | ATR Expression (Alone) | CDKN1A Expression (Alone) | ERCC1 Expression (Alone) | FPGS Expression (Alone) | MRE11A Expression (Alone) | NADSYN1 expression (Alone) | NEIL2 Expression (Alone) | OAS2 Expression (Alone) | PTGS1 Expression (Alone) | RPS9 Expression (Alone) | SMAD1 Expression (Alone)
